21 compounds from patent US10239881B2, “RIPK2 inhibitors and method of treating cancer with same” (University Health Network, priority 2014, dated 2019) can be followed below.

One assay addresses human RIPK2 kinase (Homo sapiens (Human), UniProt O43353). As to the kind of experiment: RIPK2 inhibition assay (indirect ELISA). Format: biochemical. The following applies: His-RIPK2 0.6 nM, 6 μM ATP; read-out: RIPK2 IC50 range. The protocol: Active RIPK2 was purchased from Life Technologies as His-tagged of catalityc domain (amin acids 1-299) of human RIPK2 kinase expressed in insect cells. Amino terminal 6 histidine, sumo tagged human TTK (residues 1-275) was expressed in E. coli, and purified to >95% homogeneity by Ni^2+ agarose, gel filtration, and ion exchange chromatography.
RIPK2 activity was measured using an indirect ELISA detection system. His—RIPK2 (0.6 nM) was incubated in the presence of 6 μM ATP (Sigma cat # A7699), 20 mM Hepes, pH 7.5, 1 mM EGTA, 2.5 mM MgCl2, 2.5 mM MnCl2 and 0.01% Triton X-100 in a 96 well microtitre plate pre-coated with amino terminal 6 histidine, sumo tagged TTK (amino acid residues 1-275). The reaction was allowed to proceed for 30 minutes, followed by 5 washes of the plate with Wash Buffer (phosphate buffered saline supplemented with 0.2% Tween 20), and incubation for 30 minutes with a 1:3000 dilution of primary antibody (Cell Signaling cat #9381). The plate was washed 5 times with Wash Buffer, incubated for 30 minutes in the presence of secondary antibody coupled to horse radish peroxidase (BioRad cat #1721019, 1:3000 concentration), washed an additional 5 times with Wash Buffer, and incubated in the presence of TMB substrate (Sigma cat # T0440). The colorimetric reaction was allowed to continue for 5 minutes, followed by addition of stop solution (0.5 N H2SO4), and quantified by detection at 450 nm with either a monoChromatic or filter based plate reader (Molecular Devices M5 or Beckman DTX880, respectively).
Compound inhibition was determined at either a fixed concentration (10 μM) or at a variable inhibitor concentration (typically 50 μM to 0.1 μM in a 10 point dose response titration). Compounds were pre-incubated in the presence of enzyme for 15 minutes prior to addition of ATP and the activity remaining quantified using the above described activity assay. The % Inhibition of a compound was determined using the following formula; % Inhibition=100×(1−(experimental value−background value)/(high activity control−background value)). The IC50 value was determined using a non-linear 4 point logistic curve fit (XLfit4, IDBS) with the formula; (A+(B/(1+((x/C)^D)))), where A=background value, B=range, C=inflection point, D=curve fit parameter.
(In general: An ELISA detects its analyte on a solid surface through an enzyme-linked reagent.)

Assay [1] relates to HCT116 colon cancer cells. The experiment in a line: Sulforhodamine B cell growth inhibition assay. Format: cell-based. The following applies: Homo sapiens, HCT-116, 120 h; 5 days, SRB; read-out: Colon GI50 range HCT116. The method, then: (§1) Breast cancer cells (MDA-MB-231 and MDA-MB-468), colon cancer cells (HCT116 and HT-29) and ovarian cancer cells (SKOV-3 and OVCAR-3) were seeded (1000 to 4000 in 80 μL per well depending on the cell growth rate) into 96 well plates 24 hours before compound overlay. Compounds were prepared as 10 mM stock solutions in 100% DMSO which were diluted with DMEM (Dulbecco's Modified Eagle's Medium) cell growth Medium (Invitrogen, Burlington, ON, Canada) containing 10% FBS (Fetal Bovine Serum) to concentrations ranging from 50 nM to 250 μM. Aliquots (20 μL) from each concentration were overlaid to 80 μL of the pre-seeded cells in the 96 well plates to make final concentrations of 10 nM to 50 μM. The cells were cultured for 5 days before the Sulforhodamine B assay (SRB) was performed to determine the compound's cell growth inhibition activity.
(§2) The cells are fixed in situ by gently aspirating off the culture media and adding 50 μL ice cold 10% trichloroacetic acid per well and incubate at 4° C. for 30-60 min. The plates are washed with H2O five times and allowed to air dry for 5 min. Addition of 50 μL 0.4% (w/v) SRB solution in 1% (v/v) acetic acid to each well and incubation for 30 min at rt completes the staining reaction. Following staining, plates are washed four times with 1% acetic acid to remove unbound dye and then allowed to air dry for 5 min. The stain is solubilized with 100 μL of 10 mM Tris pH 10.5 per well. Absorbance is read at 570 nm. The percentage (%) of relative growth inhibition was calculated by comparing to DMSO treated only cells (100%). GI50's were determined for compounds with cytotoxic activity. The GI50 was calculated using GraphPad PRISM software (GraphPad Software, Inc., San Diego, Calif., USA). GI50 (growth inhibition) is the compound concentration that causes 50% inhibition of cell growth.
(§3) In Table 2 lists GI50 value ranges for compound examples against breast cancer cell lines (MDA-MB-231, MDA-MB-468), colon cancer cell lines (HCT116, HT-29) and ovarian cancer cell lines (OVCAR-3, SKOV-3) are given. […] The GI50 ranges are indicated as “A,” “B,” and “C,” for values less than or equal to 1 μM; those greater than 1 μM and less than or equal to 10 μM; and those greater than 10 μM, respectively.

A further assay deals with HT-29 colon cancer cells. The experiment in a line: Sulforhodamine B cell growth inhibition assay. The following applies: Homo sapiens, HT-29, 120 h; 5 days, SRB; read-out: Colon GI50 range HT29. Format: cell-based. The protocol:
as §1, §2, §3

Assay [2] concerns MDA-MB-231 breast cancer cells. The experiment in a line: Sulforhodamine B cell growth inhibition assay. It is filed as cell-based. The following applies: Homo sapiens, MDA-MB-231, 120 h; 5 days, SRB; read-out: Breast GI50 range MDA-MB-231. The protocol: as §1, §2, §3
For assay [3], the system named is OVCAR-3 ovarian cancer cells. As to the kind of experiment: Sulforhodamine B cell growth inhibition assay. It is filed as cell-based. The following applies: Homo sapiens, OVCAR-3, 120 h; 5 days, SRB; read-out: Ovarian GI50 range OVCAR-3. The protocol: as §1, §2, §3
Assay [4] deals with SKOV-3 ovarian cancer cells. As to the kind of experiment: Sulforhodamine B cell growth inhibition assay. The following applies: Homo sapiens, SK-OV-3, 120 h; 5 days, SRB; read-out: Ovarian GI50 range SKOV-3. Format: cell-based. The method, then:
as §1, §2, §3

human RIPK2 kinase, sequence (O43353 1-299): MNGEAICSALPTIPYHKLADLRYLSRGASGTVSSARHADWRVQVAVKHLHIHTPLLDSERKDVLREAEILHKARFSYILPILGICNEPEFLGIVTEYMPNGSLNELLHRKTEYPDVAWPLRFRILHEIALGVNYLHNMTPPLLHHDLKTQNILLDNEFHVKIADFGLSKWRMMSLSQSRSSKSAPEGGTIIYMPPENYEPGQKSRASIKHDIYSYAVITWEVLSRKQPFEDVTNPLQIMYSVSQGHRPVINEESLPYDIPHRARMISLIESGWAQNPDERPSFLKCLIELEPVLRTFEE

For the compound `CN1CCN(c2cccc(Nc3ncc4[nH]c(-c5ccsc5)cc4n3)c2)CC1` [Example A11, N-(3-(4-methylpiperazin-1-yl)phenyl)-6-(thiophen-3-yl)-5H-pyrrolo[3,2-d]pyrimidin-2-amine], the IC50 (commonly the concentration that gives 50% inhibition) at human RIPK2 kinase is not above 100 nM.
`Cc1ccccc1-c1cc2nc(Nc3ccc(N4CCOCC4)cc3)ncc2[nH]1` [Example A8, N-(4-morpholino-phenyl)-6-(o-tolyl)-5H-pyrrolo[3,2-d]pyrimidin-2-amine]: the IC50 on human RIPK2 kinase is not above 100 nM. Moreover, the GI50 (usually the concentration at which growth is held to half of that of the control) in assay [1] was more than 10 µM; in the assay on HT-29 colon cancer cells it was more than 10000 nM; in assay [2], more than 10 µM; in assay [3], more than 10000 nM; in assay [4], more than 10000 nM.
On to `Cc1ccccc1-c1cc2nc(Nc3ccc(CN4CCN(C)CC4)cc3)ncc2[nH]1` [Example A18, N-(4-((4-methylpiperazin-1-yl)methyl)phenyl)-6-(o-tolyl)-5H-pyrrolo[3,2-d] pyrimidin-2-amine], for which, on human RIPK2 kinase, the IC50 was not above 100 nM.
For `Cc1nc(Nc2ncc3[nH]c(-c4ccccc4C)cc3n2)cc(N2CCN(CCO)CC2)n1` [Example A5, 2-(4-(2-methyl-6-((6-(o-tolyl)-5H-pyrrolo[3,2-d]pyrimidin-2-yl)amino)pyrimidin-4-yl)piperazin-1-yl)ethanol], at human RIPK2 kinase, the concentration for half-maximal inhibition (IC50) was more than 500 nM.
On to `Cc1cccc(C)c1-c1cc2nc(Nc3cccc(N4CCN(C)CC4)c3)ncc2[nH]1` [Example A6, 6-(2,6-dimethylphenyl)-N-(3-(4-methylpiperazin-1-yl)phenyl)-5H-pyrrolo[3,2-d]pyrimidin-2-amine], for which, on human RIPK2 kinase, the IC50 was not above 100 nM. Besides, the 50% growth inhibitory concentration (GI50) in assay [1] was 1 to 10 µM; in the assay with HT-29 colon cancer cells, not above 1000 nM; in assay [2] it was 1 to 10 µM; in assay [3], not above 1000 nM; in assay [4], not above 1000 nM.
Turning to `CN1CCN(c2cccc(Nc3ncc4[nH]c(C5CCCC5)cc4n3)c2)CC1` [Example A10, 6-cyclopentyl-N-(3-(4-methylpiperazin-1-yl)phenyl)-5H-pyrrolo[3,2-d]pyrimidin-2-amine], the IC50 at human RIPK2 kinase was more than 500 nM.
On the same count and under the same terms, in the case of `OCCN1CCN(c2cccc(Nc3ncc4[nH]c(-c5ccccc5Cl)cc4n3)c2)CC1` [Example A16, 2-(4-(3-((6-(2-chlorophenyl)-5H-pyrrolo[3,2-d]pyrimidin-2-yl)amino)phenyl)piperazin-1-yl) ethanol] it was not above 100 nM; in that of `Cc1ccccc1-c1cc2nc(N[C@H]3CC[C@@H](O)CC3)ncc2[nH]1` [Example A22, (1s,4s)-4-((6-(o-tolyl)-5H-pyrrolo[3,2-d]pyrimidin-2-yl)amino) cyclohexanol], more than 500 nM.
As for `c1cc(Nc2ncc3[nH]c(C4CCOCC4)cc3n2)cc(N2CCOCC2)c1` [Example A14, N-(3-morpholino-phenyl)-6-(tetrahydro-2H-pyran-4-yl)-5H-pyrrolo[3,2-d] pyrimidin-2-amine], the IC50 at human RIPK2 kinase was more than 500 nM.
Still for that read-out and setting: in the case of `Cc1ccccc1-c1cc2nc(Nc3ccc(CN4CCOCC4)cc3)ncc2[nH]1` [Example A15, N-(4-(morpholino-methyl)phenyl)-6-(o-tolyl)-5H-pyrrolo[3,2-d] pyrimidin-2-amine] it was not above 100 nM.
Consider `Cc1ccccc1-c1cc2nc(NC3CCOCC3)ncc2[nH]1` [Example A23, N-(tetrahydro-2H-pyran-4-yl)-6-(o-tolyl)-5H-pyrrolo[3,2-d]pyrimidin-2-amine], for which the 50% inhibitory concentration (IC50) at human RIPK2 kinase is more than 500 nM.
Turning to `Cc1ccccc1-c1cc2nc(NCC3CCOCC3)ncc2[nH]1` [Example A24, N-((tetrahydro-2H-pyran-4-yl)methyl)-6-(o-tolyl)-5H-pyrrolo[3,2-d]pyrimidin-2-amine], on human RIPK2 kinase, the IC50 is 100 to 500 nM.
Take `Cc1ccccc1-c1cc2nc(Nc3cccc(CN4CCN(C)CC4)c3)ncc2[nH]1` [Example A9, N-(3-((4-methylpiperazin-1-yl)methyl)phenyl)-6-(o-tolyl)-5H-pyrrolo[3,2-d] pyrimidin-2-amine]: the IC50 at human RIPK2 kinase is not above 100 nM. In addition, the GI50 is 1 to 10 µM in assay [1]; not above 1000 nM in the assay on HT-29 colon cancer cells; more than 10 µM in assay [2]; not above 1000 nM in assay [3]; not above 1000 nM in assay [4].
Regarding `Cc1ccccc1-c1cc2nc(N[C@H]3CC[C@@H](O)CC3)ncc2[nH]1` [Example A21, (1r,4)-4-((6-(o-tolyl)-5H-pyrrolo[3,2-d]pyrimidin-2-yl)amino) cyclohexanol], the half-inhibitory concentration (IC50) on human RIPK2 kinase is 100 to 500 nM.
As for `COc1ccccc1-c1cc2nc(Nc3cccc(N4CCOCC4)c3)ncc2[nH]1` [Example A25, 6-(2-methoxy-phenyl)-N-(3-morpholino-phenyl)-5H-pyrrolo[3,2-d] pyrimidin-2-amine], the IC50 at human RIPK2 kinase fell in the range of 100 to 500 nM.
For the compound `Clc1ccccc1-c1cc2nc(Nc3cccc(N4CCOCC4)c3)ncc2[nH]1` [Example A20, 6-(2-chloro-phenyl)-N-(3-morpholino-phenyl)-5H-pyrrolo[3,2-d]pyrimidin-2-amine], the half-inhibitory concentration (IC50) on human RIPK2 kinase is not above 100 nM.
Regarding `Cc1ccccc1-c1cc2nc(Nc3ccc(N4CCN(C)CC4)cc3)ncc2[nH]1` [Example A17, N-(4-(4-methylpiperazin-1-yl)phenyl)-6-(o-tolyl)-5H-pyrrolo[3,2-d]pyrimidin-2-amine], at human RIPK2 kinase, the half-maximal inhibitory concentration (IC50) was not above 100 nM.
Regarding `c1ccc(Nc2ncc3[nH]c(-c4ccccc4)cc3n2)cc1` [Example A1, N,6-diphenyl-5H-pyrrolo[3,2-d]pyrimidin-2-amine], at human RIPK2 kinase, the IC50 is more than 500 nM.
The same measure, in the same setting: in the case of `Cc1ccccc1-c1cc2nc(NCC3(N4CCOCC4)CCCC3)ncc2[nH]1` [Example A26, N-((1-morpholino-cyclopentyl)methyl)-6-(o-tolyl)-5H-pyrrolo[3,2-d]pyrimidin-2-amine] it was more than 500 nM; in that of `Cc1ccccc1-c1cc2nc(NCCCN3CCOCC3)ncc2[nH]1` [Example A19, N-(3-morpholinopropyl)-6-(o-tolyl)-5H-pyrrolo[3,2-d]pyrimidin-2-amine], more than 500 nM.
Take `Cc1ccccc1-c1cc2nc(Nc3cccc(CN4CCOCC4)c3)ncc2[nH]1` [Example A7, N-(3-(morpholino-methyl)phenyl)-6-(o-tolyl)-5H-pyrrolo[3,2-d] pyrimidin-2-amine]: the IC50 on human RIPK2 kinase is not above 100 nM. The concentration for 50% growth inhibition (GI50) is 1 to 10 µM in assay [1]; 1000 to 10000 nM in the assay with HT-29 colon cancer cells; 1 to 10 µM in assay [2]; 1000 to 10000 nM in assay [3]; 1000 to 10000 nM in assay [4].
